Measurements from US11345673B2, “1-phenylpropanone compounds and use thereof” (UNIVERSITA' DEGLI STUDI DI PADOVA, priority 2016, dated 2022).

Test system: S1P1 receptor
Assay: Immunosuppressive effect: Western blot of S1P1 receptor in LLC cells
Type: cell-based, human
Conditions: incubation for discrete times (3 hours, 12 hours)
Method: To this end, LLC cells (5×10^5 per well) were seeded and cultured on 12-well plates in RPMI-1640 medium, 10% FBS, at 37° C. in a humidified atmosphere containing 5% CO2, adding to the culture the various test compounds. Incubation was conducted for discrete times, at the end of which the cells were lysed to submit the protein content to Western blot analysis with antibodies that specifically recognize the S1P1 receptor.

`CCCCCCCCc1ccc(CCC(N)(CO)CO)cc1.Cl` [FTY720, 2-amino-2[2-(4-octylphenyl)ethyl]propane-1,3-diol hydrochloride] was tested, and the “S1P1 receptor expression (Western blot, FIG. 1)” value was “induces a rapid decrease of S1P1 receptor”.
